Experimental data reported in patent US20230295068A1, “NOVEL CYCLOALKENONE COMPOUND OR SALT THEREOF” (TAIHO PHARMACEUTICAL CO., LTD., priority 2020, published 2023).

Tested on: ND3 neuronal cell line
Assay: Measurement of nerve growth stimulation effect (neurite bearing assay, neurite length assay, number of cells)
Assay type: cell-based
Details: 6 hours, relative cell number, DMSO well = 1
Experimental: To evaluate the nerve growth stimulation effect, neurite bearing assay (proportion of neurite-bearing cells) and neurite length assay (neurite length) were analyzed with reference to the method of Topalli et al. (Brain Research 1030 (2004), pp. 116-124).
An ND3 neuronal cell line (European Collection of Authenticated Cell Cultures) was seeded in a DMEM medium containing 10% fetal bovine serum (0.6×10^4 cells/1 mL) in a 24-well plate. 24 hours later, the medium of seeded cells was removed, and a solution in which the compound of the present disclosure that was sequentially diluted in dimethyl sulfoxide (DMSO) was adjusted in DIEM containing 0.1% bovine serum albumin so that the DMSO final concentration was 0.1%, was added to cells (evaluation performed in duplicate). After six hours from the addition, the proportion of neurite-bearing cells (the number of cells having a neurite longer than the diameter of the cell body/number of total cells), and the neurite length per cell were analyzed. The number of total cells, proportion of neurite-bearing cells, and neurite length per cell were analyzed using a MetaMorph Neurite Outgrowth Application Module (Molecular Devices Japan K.K.). The number of cells was defined as the relative cell number, taking the number of cells per well containing DMSO as 1. The relative activity of each compound when the maximum activity of 3-(15-methoxypentadecyl)-2,4,4-trimethylcyclohexa-2-en-1-one (compound 24) in each test was defined as 1 is shown (Table 9). For the compounds for which multiple tests were conducted, the average value was shown. Data with a number of cells of 0.5 or more was also used. Accordingly, if the number of cells was less than 0.5, the neurite length per cell and the proportion of neurite-bearing cells were defined as “-”.

Row | SMILES | viability at 1 µM [%] | viability at 3 µM [%] | viability at 5 µM [%] | viability at 10 µM [%] | viability at 30 µM [%] | viability at 100 µM [%]
1 | CCOCCCCCCCCCCCCCCCC1=C(C)C(=O)CCC1(C)C [Compound 25, 3-(15-ethoxypentadecyl)-2,4,4-trimethylcyclohex-2-en-1-one] | 97 | 103 | 97 | 97 | 98 | 94
2 | CC1=C(CCCCCCCCCCCCCCCOC(C)C)C(C)(C)CCC1=O [Compound 26, 3-(15-isopropoxypentadecyl)-2,4,4-trimethylcyclohex-2-en-1-one] | 102 | 100 | 93 | 90 | 98 | 101
3 | [2H]C([2H])([2H])OCCCCCCCCCCCCCCCC1=C(C)C(=O)CCC1(C)C [Compound 27, 3-(15-(methoxy-d3)pentadecyl)-2,4,4-trimethylcyclohex-2-en-1-one] | – | 90 | 87 | 83 | 83 | 88
4 | [2H]C([2H])(CCCCCCCCCCCCCCC1=C(C)C(=O)CCC1(C)C)OC [Compound 28, 3-(15-methoxypentadecyl-15,15-d2)-2,4,4-trimethylcyclohex-2-en-1-one] | 92 | 86 | 71 | 68 | 77 | 86
5 | COCCCCCCCCCCCCCCCCC1=C(C)C(=O)CCC1(C)C [Compound 29, 3-(16-methoxyhexadecyl)-2,4,4-trimethylcyclohex-2-en-1-one] | 107 | 98 | 96 | 92 | 97 | 93
6 | CCOCCCCCCCCCCCCCCCCC1=C(C)C(=O)CCC1(C)C [Compound 30, 3-(16-ethoxyhexadecyl)-2,4,4-trimethylcyclohex-2-en-1-one] | 88 | 91 | 83 | 87 | 95 | 98
7 | CC1=C(CCCCCCCCCCCCCCCCOC(C)C)C(C)(C)CCC1=O [Compound 31, 3-(16-isopropoxyhexadecyl)-2,4,4-trimethylcyclohex-2-en-1-one] | 99 | 93 | 75 | 77 | 84 | 93
8 | CC1=C(CCCCCCCCCCCCCCC(N)=O)C(C)(C)CCC1=O [Compound 32, 15-(2,6,6-trimethyl-3-oxocyclohex-1-en-1-yl)pentadecanamide] | 92 | 93 | 81 | 81 | 54 | 9
9 | CNC(=O)CCCCCCCCCCCCCCC1=C(C)C(=O)CCC1(C)C [Compound 33, N-methyl-15-(2,6,6-trimethyl-3-oxocyclohex-1-en-1-yl)pentadecanamide] | 92 | 90 | 83 | 86 | 91 | 80
10 | CC1=C(CCCCCCCCCCCCCCC#N)C(C)(C)CCC1=O [Compound 34, 15-(2,6,6-trimethyl-3-oxocyclohex-1-en-1-yl)pentadecanitrile] | 106 | 101 | 96 | 98 | 98 | 97
11 | CC1=C(CCCCCCCCCCCCCCCOC(N)=O)C(C)(C)CCC1=O [Compound 35, 15-(2,6,6-trimethyl-3-oxocyclohex-1-en-1-yl)pentadecylcarbamate] | 94 | 94 | 99 | 82 | 16 | 31
12 | CC1=C(CCCCCCCCCCCCCCCOC(=O)N(C)C)C(C)(C)CCC1=O [Compound 36, 15-(2,6,6-trimethyl-3-oxocyclohex-1-en-1-yl)pentadecyl dimethylcarbamate] | 91 | 107 | 97 | 94 | 98 | 86
13 | COCCCCCCCCCCCCCCCC1=CC(=O)CCC1 [Compound 37, 3-(15-methoxypentadecyl)cyclohex-2-en-1-one] | 99 | 102 | 84 | 89 | 107 | 97
14 | COCCCCCCCCCCCCCCCC1=C(C)C(=O)CCC1 [Compound 38, 3-(15-methoxypentadecyl)-2-methylcyclohex-2-en-1-one] | 96 | 101 | 91 | 86 | 80 | 52
15 | COCCCCCCCCCCCCCCCC1=CC(=O)CCC1(C)C [Compound 39, 3-(15-methoxypentadecyl)-4,4-dimethylcyclohex-2-en-1-one] | 83 | 100 | – | 97 | 97 | 49
16 | COCCCCCCCCCCCCCCCC1=C(I)C(=O)CCC1(C)C [Compound 40, 2-iodo-3-(15-methoxypentadecyl)-4,4-dimethylcyclohex-2-en-1-one] | 94 | 104 | 97 | 93 | 103 | 98
17 | COCCCCCCCCCCCCCCCC1=C(C)C(=O)C=CC1(C)C [Compound 41, 3-(15-methoxypentadecyl)-2,4,4-trimethylcyclohex-2,5-dien-1-one] | 110 | 112 | 82 | 93 | 109 | 114
18 | COCCCCCCCCCCCCCCCC1=C(COC)C(=O)CCC1(C)C [Compound 42, 2-(methoxymethyl)-3-(15-methoxypentadecyl)-4,4-dimethylcyclohex-2-en-1-one] | 86 | 88 | 76 | 83 | 87 | 83
19 | COCCCCCCCCCCCCCCCC1=CC(=O)CCC12CC2 [Compound 43, 4-(15-methoxypentadecyl)spiro[2,5]oct-4-en-6-one] | 97 | 97 | 85 | 86 | 96 | 101
20 | COCCCCCCCCCCCCCCCC1=C(C)C(=O)CCC12CC2 [Compound 44, 4-(15-methoxypentadecyl)-5-methylspiro[2,5]oct-4-en-6-one] | 83 | 90 | 82 | 75 | 91 | 89
21 | COCCCCCCCCCCCCCCCC1=C(C)C(=O)CC1 [Compound 45, 3-(15-methoxypentadecyl)-2-methylcyclopent-2-en-1-one] | 94 | 90 | 74 | 83 | 71 | 75
22 | COCCCCCCCCCCCCCCCC1=C(C)C(=O)C(C)C1C (stereo not shown) [Compound 46, 3-(15-methoxypentadecyl)-2,4,5-trimethylcyclopent-2-en-1-one] | 94 | 99 | 83 | 78 | 102 | 98
23 | COC(C)(C)CCCCCCCCCCCCCCC1=C(C)C(O)CCC1(C)C (stereo not shown) [Compound 47, 3-(15-methoxy-15-methylhexadecyl)-2,4,4-trimethylcyclohex-2-en-1-ol] | 98 | 91 | 85 | 89 | 88 | 87
24 | COC(C)(C)CCCCCCCCCCCCCCC1=C(C)C(=O)CCC1(C)C [Compound 48, 3-(15-methoxy-15-methylhexadecyl)-2,4,4-trimethylcyclohex-2-en-1-one] | 85 | 93 | 91 | 90 | 93 | 87
25 | CC1=C(CCCCCCCCCCCCCCCOC(F)(F)F)C(C)(C)CCC1=O [Compound 49, 2,4,4-trimethyl-3-(15-(trifluoromethoxy)pentadecyl)-cyclohex-2-en-1-one] | 96 | 100 | 101 | 101 | 103 | 108
